Reference: EP0382634A1, “Pyridazine derivatives, process for their preparation and pharmaceutical compositions containing them” (ELF SANOFI, priority 1989, dated 1990)

How the values were obtained:
[1] = system: rotations induites par la pirenzépine; experiment: Pirenzepine-induced rotations test (Worms et al., modified: oral dosing 4 h before pirenzepine); type: in vivo; settings: 3 mg/kg body weight, 4 h before pirenzepine injection
Description: In vivo, les composés selon l'invention ont été essayés sur le test des rotations induites par la pirenzépine décrit par Worms P. et al. (Psychopharmacology, 1987, 93, 489-493) modifié en ce que l'administration des produits par voie orale qui a eu lieu 4 heures au lieu de 30 minutes avant l'injection de pirenzépine.

récepteurs de type M1 = target: T1, récepteurs de type M1 (Homo sapiens, UniProt P11229); experiment: Muscarinic M1 receptor ligand binding (technique of Watson et al.); settings: in vitro; read-out: concentration inhibitrice 50 sur le ligand des récepteurs M1
T1 construct: une spécificité marquée pour les récepteurs centraux de type M1 vis-à-vis des récepteurs périphériques de type M2; from tissue; host or cells: central (brain) tissue
T1 sequence (P11229 1-460): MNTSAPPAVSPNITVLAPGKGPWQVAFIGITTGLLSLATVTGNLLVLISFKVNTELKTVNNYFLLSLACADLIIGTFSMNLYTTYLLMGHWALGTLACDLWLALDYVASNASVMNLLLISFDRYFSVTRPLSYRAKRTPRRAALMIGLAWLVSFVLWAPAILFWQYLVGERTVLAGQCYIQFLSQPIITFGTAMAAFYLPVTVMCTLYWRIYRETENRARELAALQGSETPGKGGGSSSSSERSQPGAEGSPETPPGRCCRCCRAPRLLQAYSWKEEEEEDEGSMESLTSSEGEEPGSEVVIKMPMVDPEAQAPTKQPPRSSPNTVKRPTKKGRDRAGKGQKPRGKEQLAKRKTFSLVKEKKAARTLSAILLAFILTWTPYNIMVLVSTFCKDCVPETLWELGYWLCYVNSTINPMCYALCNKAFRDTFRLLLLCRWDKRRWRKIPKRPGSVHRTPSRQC
Text: In vitro, les composés (I) ont été essayés suivant la technique décrite par Watson J.D. et al. (Life Science, 1982, 31, 2019-2029) en ce qui concerne leur activité sur les récepteurs de type M1 et selon la technique décrite par Hammer R. et al. (Nature, 1980, 283, 90,92) et Hulme E.C. et al. (Molecular Pharmacology, 1978, 14, 737-750), en ce qui concerne leur activité sur les récepteurs de type M2.

Question: What does the source list for `CCCc1cc(NCC2CCCN2CC)nnc1-c1ccccc1` (stereo not drawn) [SR 96181]?
Answer: inhibition des rotations induites par la pirenzépine [1]: 71%; IC50 (récepteurs de type M1): 0.03 µM

Question: Which “inhibition des rotations induites par la pirenzépine” value [1] does the source give for `Cc1cc(NCc2ccccn2)nnc1-c1ccccc1` [SR 96204 A] here?
Answer: 67%
